Reference: patent US8952024B2, “Herbicidal pyrimidone derivatives” (E I du Pont de Nemours and Company, priority 2009, dated 2015)

Columns and labels:
Test in all cases: Test A pre-/postemergence plant response
Format in all cases: in vivo
[1] = tested on: velvetleaf (Abutilon theophrasti)
From the text: (§1) Seeds of barnyardgrass (Echinochloa crus-galli), large crabgrass (Digitaria sanguinalis), giant foxtail (Setaria faberii), morningglory (Ipomoea spp.), pigweed (Amaranthus retroflexus), velvetleaf (Abutilon theophrasti), wheat (Triticum aestivum) and corn (Zea mays) were planted into a blend of loam soil and sand and treated preemergence with a directed soil spray using test chemicals formulated in a non-phytotoxic solvent mixture which included a surfactant. At the same time these species were also treated with postemergence applications of test compounds formulated in the same manner.
(§2) Plants ranged in height from two to ten cm and were in the one- to two-leaf stage for the postemergence treatment. Treated plants and untreated controls were maintained in a greenhouse for approximately ten days, after which time all treated plants were compared to untreated controls and visually evaluated for injury. Plant response ratings, summarized in Table A, are based on a 0 to 100 scale where 0 is no effect and 100 is complete control. A dash (-) response means no test result.

[2] = tested on: barnyardgrass (Echinochloa crus-galli); conditions: for Barnyardgrass plant response rating: visual injury, 0 to 100 scale (0 no effect, 100 complete control), approx. ten days
From the text: as §1, §2

[3] = tested on: giant foxtail (Setaria faberii)
From the text: as §1, §2

[4] = tested on: corn (Zea mays); conditions: for Corn plant response rating: visual injury, 0 to 100 scale (0 no effect, 100 complete control), approx. ten days
From the text: as §1, §2

[5] = tested on: morningglory (Ipomoea spp.)
From the text: as §1, §2

[6] = tested on: pigweed (Amaranthus retroflexus)
From the text: as §1, §2

[7] = tested on: large crabgrass (Digitaria sanguinalis); conditions: for Crabgrass, Large plant response rating: visual injury, 0 to 100 scale (0 no effect, 100 complete control), approx. ten days
From the text: as §1, §2

[8] = tested on: wheat (Triticum aestivum)
From the text: as §1, §2

[9] = Postemergence, 125 g ai/ha, 0 to 100 scale where 0 is no effect and 100 is complete control
[10] = Postemergence, 500 g ai/ha, visual injury, 0 to 100 scale (0 no effect, 100 complete control), approx. ten days
[11] = Preemergence, 125 g ai/ha, 0 to 100 scale, 0 = no effect, 100 = complete control
[12] = Preemergence, 500 g ai/ha, 0 to 100 scale, 0 = no effect, 100 = complete control
[13] = Postemergence, 125 g ai/ha, visual injury, 0 to 100 scale (0 no effect, 100 complete control), approx. ten days
[14] = Preemergence, 125 g ai/ha, 0 to 100 scale where 0 is no effect and 100 is complete control, approximately ten days

## CCCn1c(-c2ccc3ccccc3c2)ncc(C(=O)C2=C(O)C3CCC(C3)C2=O)c1=O (stereo not shown) [Compound 242]
[1]; [9]
  Plant response rating, Velvetleaf: 50
[1]; [10]
  Velvetleaf plant response rating: 90
[1]; [11]
  Plant response rating, Velvetleaf: 0
[1]; [12]
  Plant response rating, Velvetleaf: 0
[2]; [9]
  Plant response rating, Barnyardgrass: 50
[2]; Postemergence, 500 g ai/ha
  Barnyardgrass plant response rating: 90
[2]; [11]
  Plant response rating, Barnyardgrass: 0
[2]; [12]
  Plant response rating, Barnyardgrass: 0
[3]; [9]
  Plant response rating, Foxtail, Giant: 50
[3]; [10]
  Foxtail, Giant plant response rating: 80
[3]; [11]
  Plant response rating, Foxtail, Giant: 0
[3]; [12]
  Plant response rating, Foxtail, Giant: 0
[4]; [9]
  Plant response rating, Corn: 0
[4]; Postemergence, 500 g ai/ha
  Corn plant response rating: 20
[4]; [11]
  Plant response rating, Corn: 0
[4]; [12]
  Plant response rating, Corn: 0
[5]; [9]
  Plant response rating, Morningglory: 40
[5]; [10]
  Morningglory plant response rating: 100
[5]; [11]
  Plant response rating, Morningglory: 0
[5]; [12]
  Plant response rating, Morningglory: 0
[6]; [9]
  Plant response rating, Pigweed: 20
[6]; [10]
  Pigweed plant response rating: 30
[6]; [11]
  Plant response rating, Pigweed: 0
[6]; [12]
  Plant response rating, Pigweed: 0
[7]; [9]
  Plant response rating, Crabgrass, Large: 20
[7]; Postemergence, 500 g ai/ha
  Crabgrass, Large plant response rating: 60
[7]; [11]
  Plant response rating, Crabgrass, Large: 0
[7]; [12]
  Plant response rating, Crabgrass, Large: 10
[8]; [9]
  Plant response rating, Wheat: 0
[8]; [10]
  Wheat plant response rating: 30
[8]; [11]
  Plant response rating, Wheat: 0
[8]; [12]
  Plant response rating, Wheat: 0

## O=C(C1=C(O)C2CCC(C2)C1=O)c1cnc(-c2ccccc2)n(C2CCCCCCCCCCC2)c1=O (stereo not shown) [Compound 247]
[1]; [13]
  Plant response rating, Velvetleaf: 100
[1]; [10]
  Velvetleaf plant response rating: 100
[1]; [14]
  Plant response rating, Velvetleaf: 0
[1]; [12]
  Plant response rating, Velvetleaf: 0
[2]; [9]
  Plant response rating, Barnyardgrass: 30
[2]; Postemergence, 500 g ai/ha
  Barnyardgrass plant response rating: 80
[2]; [14]
  Plant response rating, Barnyardgrass: 0
[2]; [12]
  Plant response rating, Barnyardgrass: 0
[3]; [13]
  Plant response rating, Foxtail, Giant: 0
[3]; [10]
  Foxtail, Giant plant response rating: 30
[3]; [14]
  Plant response rating, Foxtail, Giant: 0
[3]; [12]
  Plant response rating, Foxtail, Giant: 0
[4]; [9]
  Plant response rating, Corn: 0
[4]; Postemergence, 500 g ai/ha
  Corn plant response rating: 30
[4]; [14]
  Plant response rating, Corn: 0
[4]; [12]
  Plant response rating, Corn: 0
[5]; [13]
  Plant response rating, Morningglory: 100
[5]; [10]
  Morningglory plant response rating: 100
[5]; [14]
  Plant response rating, Morningglory: 0
[5]; [12]
  Plant response rating, Morningglory: 0
[6]; [13]
  Plant response rating, Pigweed: 70
[6]; [10]
  Pigweed plant response rating: 90
[6]; [14]
  Plant response rating, Pigweed: 0
[6]; [12]
  Plant response rating, Pigweed: 0
[7]; [9]
  Plant response rating, Crabgrass, Large: 40
[7]; Postemergence, 500 g ai/ha
  Crabgrass, Large plant response rating: 70
[7]; [14]
  Plant response rating, Crabgrass, Large: 0
[7]; [12]
  Plant response rating, Crabgrass, Large: 0
[8]; [13]
  Plant response rating, Wheat: 0
[8]; [10]
  Wheat plant response rating: 0
[8]; [14]
  Plant response rating, Wheat: 0
[8]; [12]
  Plant response rating, Wheat: 0
